Results reported in ChEMBL document CHEMBL1201862, “PubChem BioAssay data set” (2004).
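Results reflect a 48-hour exposure of cells in 96-well plates to compound at five concentrations. GI50: concentration for 50% inhibition of growth.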 The source made the active and inactive calls. No stated cut-off is given here; in the data, active = GI50 up to about 1.1 µM and inactive = higher.

What was measured:
Experiment in all cases: NCI anticancer screen, dose series, 48 h
TK-10 = system: TK-10
MDA-MB-435 = system: MDA-MB-435
HOP-92 = system: HOP-92
HCT-116 = system: HCT-116
U-251 = system: U-251
HCC 2998 = system: HCC 2998
DMS-114 = system: DMS-114
COLO 205 = system: COLO 205
OVCAR-4 = system: OVCAR-4
DLD-1 = system: DLD-1
786-0 = system: 786-0
M19-MEL = system: M19-MEL
SK-OV-3 = system: SK-OV-3
NCI/ADR-RES = system: NCI/ADR-RES
SR = system: SR
MDA-N = system: MDA-N
HOP-62 = system: HOP-62
RXF 393 = system: RXF 393
KM-20L2 = system: KM-20L2
SK-MEL-5 = system: SK-MEL-5
Malme-3M = system: Malme-3M
LXFL 529 = system: LXFL 529
CAKI-1 = system: CAKI-1
RPMI-8226 = system: RPMI-8226
SK-MEL-28 = system: SK-MEL-28
SNB-75 = system: SNB-75
SF-295 = system: SF-295
NCI-H23 = system: NCI-H23
K562 = system: K562
PC-3 = system: PC-3
HCT-15 = system: HCT-15
NCI-H460 = system: NCI-H460
A498 = system: A498
BT-549 = system: BT-549
HL-60 = system: HL-60
UO-31 = system: UO-31
EKVX = system: EKVX
OVCAR-8 = system: OVCAR-8
HT-29 = system: HT-29
KM12 = system: KM12
SN12C = system: SN12C
DMS-273 = system: DMS-273
MOLT-4 = system: MOLT-4
IGROV-1 = system: IGROV-1
SF-539 = system: SF-539
SW-620 = system: SW-620
NCI-H522 = system: NCI-H522
SNB-78 = system: SNB-78
M14 = system: M14
CCRF-CEM = system: CCRF-CEM
SNB-19 = system: SNB-19
OVCAR-5 = system: OVCAR-5
UACC-62 = system: UACC-62
RXF 631 = system: RXF 631
A549 = system: A549
SF-268 = system: SF-268
HOP-18 = system: HOP-18
SK-MEL-2 = system: SK-MEL-2
NCI-H226 = system: NCI-H226
DU-145 = system: DU-145
MDA-MB-231 = system: MDA-MB-231
T47D = system: T47D
UACC-257 = system: UACC-257
OVCAR-3 = system: OVCAR-3
ACHN = system: ACHN
LOX IMVI = system: LOX IMVI
MCF7 = system: MCF7
XF498 = system: XF498

## COc1c(Cl)cc(NC(=S)C#N)cc1Cl
TK-10
  GI50: 33.8 µM (inactive)
MDA-MB-435
  GI50: 25 µM (inactive)
HOP-92
  GI50: 22.6 µM (inactive)
HCT-116
  GI50: 16.4 µM (inactive)
U-251
  GI50: 17.7 µM (inactive)
HCC 2998
  GI50: 15.9 µM (inactive)
DMS-114
  GI50: 15.6 µM (inactive)
COLO 205
  GI50: 17.8 µM (inactive)
OVCAR-4
  GI50: 29.2 µM (inactive)
DLD-1
  GI50: 31.7 µM (inactive)
786-0
  GI50: 28.3 µM (inactive)
M19-MEL
  GI50: 19.5 µM (inactive)
SK-OV-3
  GI50: 29.7 µM (inactive)
NCI/ADR-RES
  GI50: 22.1 µM (inactive)
SR
  GI50: 23.8 µM (inactive)
MDA-N
  GI50: 25.5 µM (inactive)
HOP-62
  GI50: 24.5 µM (inactive)
RXF 393
  GI50: 27.3 µM (inactive)
KM-20L2
  GI50: 20.1 µM (inactive)
SK-MEL-5
  GI50: 15.8 µM (inactive)
Malme-3M
  GI50: 20.6 µM (inactive)
LXFL 529
  GI50: 22.2 µM (inactive)
CAKI-1
  GI50: 22.7 µM (inactive)
RPMI-8226
  GI50: 22.8 µM (inactive)
SK-MEL-28
  GI50: 26.7 µM (inactive)
SNB-75
  GI50: 22.5 µM (inactive)
SF-295
  GI50: 29.5 µM (inactive)
NCI-H23
  GI50: 19.3 µM (inactive)
K562
  GI50: > 52.2 µM (inactive)
PC-3
  GI50: 24.3 µM (inactive)
HCT-15
  GI50: 18.4 µM
NCI-H460
  GI50: 23.9 µM (inactive)
A498
  GI50: 19.1 µM (inactive)
BT-549
  GI50: 16.6 µM (inactive)
HL-60
  GI50: > 100 µM (inactive)
UO-31
  GI50: 22.3 µM (inactive)
EKVX
  GI50: 22.2 µM (inactive)
OVCAR-8
  GI50: 28.4 µM (inactive)
HT-29
  GI50: 22.8 µM (inactive)
KM12
  GI50: 30.4 µM (inactive)
SN12C
  GI50: 20.1 µM (inactive)
DMS-273
  GI50: 30.3 µM (inactive)
MOLT-4
  GI50: 32.9 µM (inactive)
IGROV-1
  GI50: 27.1 µM (inactive)
SF-539
  GI50: 23.8 µM (inactive)
SW-620
  GI50: 31.3 µM (inactive)
NCI-H522
  GI50: 19.4 µM (inactive)
SNB-78
  GI50: 26.7 µM (inactive)
M14
  GI50: 24.5 µM (inactive)
CCRF-CEM
  GI50: > 53.8 µM (inactive)
SNB-19
  GI50: 32.9 µM (inactive)
OVCAR-5
  GI50: 37.1 µM (inactive)
UACC-62
  GI50: 15.1 µM (inactive)
RXF 631
  GI50: 19.7 µM (inactive)
A549
  GI50: 23.4 µM (inactive)
SF-268
  GI50: 31.2 µM (inactive)
HOP-18
  GI50: 8.53 µM (inactive)
SK-MEL-2
  GI50: 23.4 µM (inactive)
NCI-H226
  GI50: 22.5 µM (inactive)
DU-145
  GI50: 35.6 µM (inactive)
MDA-MB-231
  GI50: 17 µM (inactive)
T47D
  GI50: 12.6 µM (inactive)
UACC-257
  GI50: 19.9 µM (inactive)
OVCAR-3
  GI50: 20.8 µM (inactive)
ACHN
  GI50: 25.6 µM (inactive)
LOX IMVI
  GI50: 20 µM (inactive)
MCF7
  GI50: 24.4 µM (inactive)

## O=[N+]([O-])c1ccc(NSc2ccccc2)cc1
TK-10
  GI50: 44.7 µM (inactive)
HOP-92
  GI50: 28.7 µM (inactive)
HCT-116
  GI50: 25.2 µM (inactive)
U-251
  GI50: 29.7 µM (inactive)
HCC 2998
  GI50: 50.6 µM (inactive)
DMS-114
  GI50: 21 µM (inactive)
COLO 205
  GI50: 30.7 µM (inactive)
DLD-1
  GI50: 24.8 µM (inactive)
786-0
  GI50: 16.4 µM (inactive)
SK-OV-3
  GI50: 29.9 µM (inactive)
SR
  GI50: 10.7 µM (inactive)
HOP-62
  GI50: 33.3 µM (inactive)
RXF 393
  GI50: 20 µM (inactive)
KM-20L2
  GI50: 31.8 µM (inactive)
SK-MEL-5
  GI50: 31.8 µM (inactive)
Malme-3M
  GI50: > 100 µM (inactive)
LXFL 529
  GI50: 14.3 µM (inactive)
RPMI-8226
  GI50: > 10 µM (inactive)
SK-MEL-28
  GI50: 45.3 µM (inactive)
SF-295
  GI50: 27.6 µM (inactive)
NCI-H23
  GI50: 45.6 µM (inactive)
K562
  GI50: 23.6 µM (inactive)
HCT-15
  GI50: 19.8 µM
NCI-H460
  GI50: 18.3 µM (inactive)
A498
  GI50: 2.37 µM (inactive)
HL-60
  GI50: 15 µM (inactive)
UO-31
  GI50: 26.8 µM (inactive)
EKVX
  GI50: 30 µM (inactive)
OVCAR-8
  GI50: 19.8 µM (inactive)
KM12
  GI50: 27.8 µM (inactive)
SN12C
  GI50: 17.2 µM (inactive)
DMS-273
  GI50: 15.4 µM (inactive)
MOLT-4
  GI50: 10.8 µM (inactive)
IGROV-1
  GI50: 10.7 µM (inactive)
SF-539
  GI50: 18.7 µM (inactive)
SW-620
  GI50: 24.2 µM (inactive)
NCI-H522
  GI50: 17.2 µM (inactive)
SNB-78
  GI50: 38.3 µM (inactive)
M14
  GI50: 20.5 µM (inactive)
CCRF-CEM
  GI50: 3.03 µM (inactive)
SNB-19
  GI50: 70.3 µM (inactive)
OVCAR-5
  GI50: 89.7 µM (inactive)
UACC-62
  GI50: 20.1 µM (inactive)
A549
  GI50: 29 µM (inactive)
SF-268
  GI50: 28.2 µM (inactive)
HOP-18
  GI50: > 100 µM (inactive)
SK-MEL-2
  GI50: 42.9 µM (inactive)
UACC-257
  GI50: 29.3 µM (inactive)
OVCAR-3
  GI50: 34.8 µM (inactive)
ACHN
  GI50: 33.2 µM (inactive)
LOX IMVI
  GI50: 13.1 µM (inactive)
XF498
  GI50: 31.1 µM (inactive)

## O=C(Cc1nc2ccccc2c(=O)n1-c1ccccc1Cl)c1ccncc1
TK-10
  GI50: > 100 µM (inactive)
HOP-92
  GI50: > 100 µM (inactive)
HCT-116
  GI50: > 100 µM (inactive)
U-251
  GI50: > 100 µM (inactive)
HCC 2998
  GI50: > 100 µM (inactive)
DMS-114
  GI50: > 100 µM (inactive)
COLO 205
  GI50: > 100 µM (inactive)
OVCAR-4
  GI50: 68.2 µM (inactive)
DLD-1
  GI50: > 100 µM (inactive)
786-0
  GI50: > 100 µM (inactive)
M19-MEL
  GI50: > 100 µM (inactive)
SK-OV-3
  GI50: > 100 µM (inactive)
HOP-62
  GI50: > 100 µM (inactive)
RXF 393
  GI50: > 100 µM (inactive)
KM-20L2
  GI50: > 100 µM (inactive)
SK-MEL-5
  GI50: > 100 µM (inactive)
Malme-3M
  GI50: > 100 µM (inactive)
LXFL 529
  GI50: > 100 µM (inactive)
CAKI-1
  GI50: > 100 µM (inactive)
SK-MEL-28
  GI50: > 100 µM (inactive)
SNB-75
  GI50: 15 µM (inactive)
SF-295
  GI50: > 100 µM (inactive)
NCI-H23
  GI50: > 100 µM (inactive)
K562
  GI50: > 100 µM (inactive)
HCT-15
  GI50: > 100 µM
NCI-H460
  GI50: > 100 µM (inactive)
A498
  GI50: > 100 µM (inactive)
HL-60
  GI50: 37.6 µM (inactive)
UO-31
  GI50: > 100 µM (inactive)
EKVX
  GI50: > 100 µM (inactive)
OVCAR-8
  GI50: > 100 µM (inactive)
HT-29
  GI50: > 100 µM (inactive)
KM12
  GI50: > 100 µM (inactive)
SN12C
  GI50: > 100 µM (inactive)
DMS-273
  GI50: > 100 µM (inactive)
MOLT-4
  GI50: > 100 µM (inactive)
IGROV-1
  GI50: > 100 µM (inactive)
SF-539
  GI50: > 100 µM (inactive)
SW-620
  GI50: > 100 µM (inactive)
NCI-H522
  GI50: > 100 µM (inactive)
SNB-78
  GI50: > 100 µM (inactive)
M14
  GI50: > 100 µM (inactive)
CCRF-CEM
  GI50: > 100 µM (inactive)
SNB-19
  GI50: > 100 µM (inactive)
OVCAR-5
  GI50: > 100 µM (inactive)
UACC-62
  GI50: > 100 µM (inactive)
RXF 631
  GI50: > 100 µM (inactive)
A549
  GI50: > 100 µM (inactive)
SF-268
  GI50: > 100 µM (inactive)
HOP-18
  GI50: > 100 µM (inactive)
SK-MEL-2
  GI50: > 100 µM (inactive)
NCI-H226
  GI50: > 100 µM (inactive)
UACC-257
  GI50: > 100 µM (inactive)
OVCAR-3
  GI50: > 100 µM (inactive)
ACHN
  GI50: > 100 µM (inactive)
LOX IMVI
  GI50: > 100 µM (inactive)
